Reference: patent US20110130369A1, “USE OF FTS FOR THE TREATMENT OF MYOCARDIAL ISCHEMIA/REPERFUSION INJURY” (RAMOT AT TEL-AVIV UNIVERSITY LTD., priority 2008, published 2011)

Key:
[1] = test system: Ras and its downstream effectors; test: Western immunoblotting / Ras-GTP pull-down of hearts from LAD ligation rats (in vivo); design: species or system rat; settings: Protocol A, 5 mg/kg
isolated rat heart [2] = test: Measurement of irreversible ischemic injury by TTC staining of isolated perfused hearts; settings: FTS 1 μM perfusion, 30 minutes ischemia and 30 minutes of reperfusion; control 23.7±4%, p<0.05; mean±SE
Experimental: (§1) Rats were heparinized (500 U/kg) and anesthetized (i.p.) with ether. The hearts were quickly removed, the aorta was cannulated and the heart perfused in retrograde according to Langendorff at a pressure of 96 cmH2O with oxygenated Krebs-Henseleit bicarbonate buffer solution (KHB) containing (mM): 118 NaCl, 2.4 KCl, 1.2 MgSO4, 7×H2O, 2.5 CaCl2, 5 EDTA, 1.2 KH2PO4, 25 NaHCO3, 4 glucose at 37° C. [[…], Offen D, Maulik N, Otani H, Barhum Y, et al., Am J Physiol Heart Circ Physiol 284:H2351-59 (2003)]. The isolated heart was stabilized for 20 minutes at a constant perfusion pressure and then subjected to 30 minutes of ischemia followed by 30 minutes of reperfusion. Ischemia was created by clamping the aortic cannula. During reperfusion, hearts were given KHB (buffer) with FTS or KHB only. The temperature of the heart (measured in the right ventricle) was maintained at 37°±0.2° C. throughout the experiment by a micro-thermocouple connected to a digital thermometer (Webster Laboratories […], Calif.). In all stages of the protocol, the left ventricular developed pressure (LVP), the rate of pressure development and relaxation (±dP/dt) and the heart rate (HR), were continuously recorded by the CODAS data acquisition system (San Diego, Calif.). Rate pressure product (RPP), an index of myocardial workload, was calculated by multiplying LVP by HR. […]

isolated rat heart [3] = test: Enzymatic leakage of CK and LDH into the coronary effluent of isolated perfused hearts; settings: FTS 1 μM, at 1 minute and 30 minutes of reperfusion
Experimental: as §1

[4] = human, in vivo; cited from earlier work
Male Lewis rats [5] = test: LAD artery ligation I/R model, echocardiography at day 14; settings: 5 mg/kg i.p.
Experimental: (§2) At the age of 12 weeks, rats were anesthetized (mixture of 8 mg/100 g ketamine, 5 mg/100 g xylazine), intubated, and ventilated with a Harvard Rodent Ventilator Model 383 (respiratory rate: 50/min, respiratory volume: 2.5 mL). A rectal thermocouple was used to continuously monitor body temperature, which was maintained at 37° C. using a heating pad. A left thoracotomy in the third intercostal space was performed to expose the heart. The location of the left descending coronary artery was identified and then occluded with a 6-0 silk suture. Occlusion was confirmed by monitoring the pallor of the region at risk, and an electrocardiogram was used to observe changes such as widening of QRS and ST-T segment elevation. After 30 minutes, the occlusion was removed, the thorax was closed, and rats were returned to their cages at the local vivarium.
FTS was stored in chloroform, which was evaporated under a stream of nitrogen immediately before use. The powder was dissolved in absolute ethanol and diluted to the desired concentration in sterile PBS made basic with NaOH. Carrier solution (1000 μl) containing 1.35 mg of FTS (5 mg/kg) was injected intraperitoneally (i.p.) into each rat. Control solution was prepared at the same time starting with PBS and absolute ethanol.
LAD ligation was performed in two groups of rats. Group 1 received 5 mg/kg FTS and group 2 received PBS according to two protocols: (A) FTS or PBS was administered 7 days on a daily basis before LAD ligation, locally during occlusion opening (0.5 μM/100 μl), and continued for 14 days, every other day [prophylactic regimen] (B) FTS or PBS was administered 14 days after LAD ligation every other day [treatment regimen].
To examine the effect of systemic FTS treatment on the heart, in vivo experiments were conducted according two protocols.

[6] = test system: Ras and its downstream effectors; test: Western immunoblotting / Ras-GTP pull-down of homogenates of isolated perfused hearts (ex vivo); design: species or system rat; settings: FTS 1 μM, 30 minutes of reperfusion
Experimental: Hearts were obtained from FTS- and PBS-treated rats (LAD ligation experiments) and from isolated heart perfusion experiments. The hearts were homogenized in cold homogenization buffer containing protease inhibitors. Protein concentration was determined by the Bradford assay and samples containing 100 μg protein were used for determination of protein levels by Western immunoblotting using: pan-anti-Ras Ab (Ab03; Santa Cruz, Calif.), anti JNK Ab (Cell Signaling; Danvers, Mass.), anti p-JNK Ab (Cell Signaling), anti P38 Ab (Cell Signaling), anti p-P38 Ab (Cell Signaling), anti Mst1 Ab (Cell Signaling), and anti p-Mst1 Ab (Cell Signaling). Enhanced chemiluminescence (ECL) and densitometric analysis were performed as detailed previously [[…], Weisz […], Paz A, Marciano D, Egozi Y, et al., Biochemistry 37(5):1306-14 (1998)1. The hearts were prepared as described above. Samples containing 0.5 mg protein used for determination of levels of active GTP-bound Ras by the glutathione S-transferase-RBD pull-down assay followed by Western immunoblotting with pan-anti-Ras Ab as detailed previously [Jansen […], Mayer […], et al., Proc Natl Acad Sci U.S.A. 96(24):14019-24 (1999)]. To examine the effect of FTS on Ras signaling on its prominent downstream effectors, Western immunoblotting using homogenates of the isolated perfused hearts was performed. Quantitative analysis of the immunoblots disclosed a reduction in levels of active Ras (Ras-GTP) and p-Jnk in hearts of the FTS group (p<0.05) at 30 minutes of reperfusion.

isolated rat heart [7] = test: Isolated heart perfusion (Langendorff), 30 min ischemia / 30 min reperfusion, hemodynamic recovery; settings: FTS 1 μM in perfusate
Experimental: FTS was provided by Concordia Pharmaceuticals, Inc. (Ft. Lauderdale, Fla.). […] The powder was dissolved in DMSO and diluted with Krebs-Henseleit bicarbonate buffer solution (KHB) to yield a 1 μM drug solution containing 10% DMSO. Rats were heparinized (500 U/kg) and anesthetized (i.p.) with ether. The hearts were quickly removed, the aorta was cannulated and the heart perfused in retrograde according to Langendorff at a pressure of 96 cmH2O with oxygenated Krebs-Henseleit bicarbonate buffer solution (KHB) containing (mM): 118 NaCl, 2.4 KCl, 1.2 MgSO4, 7×H2O, 2.5 CaCl2, 5 EDTA, 1.2 KH2PO4, 25 NaHCO3, 4 glucose at 37° C. [[…], Offen D, Maulik N, Otani H, Barhum Y, et al., Am J Physiol Heart Circ Physiol 284:H2351-59 (2003)]. The isolated heart was stabilized for 20 minutes at a constant perfusion pressure and then subjected to 30 minutes of ischemia followed by 30 minutes of reperfusion. Ischemia was created by clamping the aortic cannula. During reperfusion, hearts were given KHB (buffer) with FTS or KHB only. The temperature of the heart (measured in the right ventricle) was maintained at 37°±0.2° C. throughout the experiment by a micro-thermocouple connected to a digital thermometer (Webster Laboratories […], Calif.). In all stages of the protocol, the left ventricular developed pressure (LVP), the rate of pressure development and relaxation (±dP/dt) and the heart rate (HR), were continuously recorded by the CODAS data acquisition system (San Diego, Calif.). Rate pressure product (RPP), an index of myocardial workload, was calculated by multiplying LVP by HR. Coronary effluent was collected at one-minute intervals before and after ischemia, at various time points (1, 10 and 30 minutes reperfusion) and analyzed for CK activity (Boehringer Mannheim). Results are expressed as means±standard error of the mean (SE). Values during stabilization period were defined as 100%. A statistical difference between the groups was assessed by analysis of variance (ANOVA) with repeated measurements using the multiple comparison option of Duncan. If differences were established, values were compared using Student's t-test: p<0.05 was considered significant. To determine the protective effects of Ras protein inhibition on cardiac damage derived from I/R injury ex vivo, we first determined the baseline absolute values of the rats and cardiac function prior to ischemia in FTS (1 μM) and control groups. […] Values are expressed as mean±SE. Next, we perfused the isolated rat hearts with FTS (1 μM) in the Langendorff system after 30 minutes of ischemia (FIG. 1). FTS had no effect on the CF recovery in the FTS vs. control group (FIG. 1A) during the 30 minutes of reperfusion.

Male Lewis rats [8] = test: LAD artery ligation I/R model, histopathology (H&E and Masson Trichrome), area of irreversible damage; settings: 5 mg/kg i.p.
Experimental: as §2
FTS was stored in chloroform, which was evaporated under a stream of nitrogen immediately before use. The powder was dissolved in absolute ethanol and diluted to the desired concentration in sterile PBS made basic with NaOH. […]
Hearts were removed and fixed in 4% formalin, then embedded in paraffin. […] Slides were then assessed in a blinded fashion by a pathologist using light microscopy and scored for the percentage of LVP involvement and collagen deposition. Scar area was evaluated using data from both H&E and Masson staining. […]

[9] = Protocol A (prophylactic regimen), p<0.05
[10] = reperfusion after 30 minutes of ischemia, p<0.05

CC(C)=CCC/C(C)=C/CC/C(C)=C/CSc1ccccc1C(=O)O [FTS, S-farnesylthiosalicylic acid]
levels of Jnk vs. control [1]: did not differ | levels of Mst vs. control [1]: did not differ | levels of P38 vs. control [1]: did not differ | levels of p-Jnk vs. control [1]: did not differ | levels of p-P38 vs. control [1]: did not differ | levels of active Ras (Ras-GTP) vs. control ([1]; p<0.05): reduction | levels of p-Mst1 vs. control ([1]; p<0.05): reduction | levels of total Ras vs. control ([1]; p<0.05): reduction | regions of irreversible ischemic injury (TTC-negative area, percentage of the entire area of the section) (isolated rat heart [2]): 12.7±2% | CK release to the coronary effluent vs. control (isolated rat heart [3]): lower in the FTS group compared with control group, but did not reach statistical significance | LDH release to the coronary effluent vs. control (isolated rat heart [3]): lower in the FTS group compared with control group, but did not reach statistical significance | tolerability / dose-limiting toxicities [4]: well-tolerated compound without dose-limiting toxicities | hemodynamic parameters of cardiac function vs. control I/R (Male Lewis rats [5]; Protocol A (prophylactic regimen)): significant improvement in most hemodynamic parameters | left ventricular end-diastolic area (LVEDA) vs. control I/R (Male Lewis rats [5]; [9]): significantly better | left ventricular end-systolic area (LVESA) vs. control I/R (Male Lewis rats [5]; [9]): significantly better | septum diameter (Male Lewis rats [5]; Protocol A (prophylactic regimen), control I/R 0.1±0.01, p<0.05, mean±SE): 0.14±0.01 cm | fractional shortening of area (Male Lewis rats [5]; Protocol A (prophylactic regimen), control I/R 38±4%, p<0.05, mean±SE): 55±6% | cardiac hemodynamic function vs. control I/R (Male Lewis rats [5]; Protocol B (treatment regimen, 14 days post-LAD ligation)): no improvement | Jnk levels vs. control [6]: No differences | Mst1 levels vs. control [6]: No differences | P38 levels vs. control [6]: No differences | p-Mst1 levels vs. control [6]: No differences | p-P38 levels vs. control [6]: No differences | total Ras levels vs. control [6]: No differences | levels of active Ras (Ras-GTP) vs. control ([6]; p<0.05): reduction | levels of p-Jnk vs. control ([6]; p<0.05): reduction | CF (coronary flow) recovery vs. control (isolated rat heart [7]; 30 minutes of reperfusion after 30 minutes of ischemia): no effect | recovery of HR vs. control (isolated rat heart [7]; reperfusion after 30 minutes of ischemia): no significant difference | LVP recovery vs. control (isolated rat heart [7]; [10]): significantly better | ±dP/dt recovery vs. control (isolated rat heart [7]; [10]): significantly better | area of irreversible damage (percentage of LV wall) (Male Lewis rats [8]; Protocol A (prophylactic regimen), control I/R 36±7%, mean±SE): 17.25±2.5% | area of irreversible damage vs. control I/R (Male Lewis rats [8]; Protocol B (treatment regimen)): did not show a significant difference
